Results taken from patent US6835370B2, “Diagnosis and treatment of malignant neoplasms” (Rhode Island Hospital, priority 1999, dated 2004).

Key:
[1] = system: HAAH gene expression; test: insulin stimulation of HAAH gene expression in FOCUS HCC cells; format: cell-based, human; conditions: 20 and 40 U insulin, serum free medium, after 16 hr of serum starvation
Excerpt: IRS-1 mediated signal transduction pathway is activated in 95% of human HCC tumors compared to the adjacent uninvolved liver tissue. HAAH is a downstream effector gene involved in this signal transduction pathway. […] A high level of HAAH protein is expressed in HCC and cholangiocarcinoma compared to normal hepatocytes and bile ducts.

[2] = system: AAH; test: MICE assay of AAH immunoreactivity in transfected cells; format: cell-based; conditions: relative to cells transfected with random oligonucleotide
Protocol: Inhibition of HAAH gene expression is enhanced by contacting cells with a phosphorothioate derivative of the HAAH antisense. Phosphorothioate antisense derivatives are made using methods well known in the art. The MILQ assay was used to measure gene expression resulting from antisense oligonucleotide gene delivery. Cells were contacted with AAH Location-6 antisense DNA, and AAH protein expression was measured using methods known in the art, e.g., the MICE assay (de la Monte, et al, 1999, Biotechniques), to determine if it was inhibited by hybridization with the oligonucleotide. The MICE assay is used to measure inimunoreactivity in cultured cells without the need to extract proteins or perform gel electrophoresis. This assay is more sensitive than Western blot analysis. Using the MICE assay, AAH immunoreactivity was assessed in cells transfected with non-relevant (random) oligonucleotide sequences, specific antisense oligonucleotides (Location-6), and a phosphorothioate Location-6 antisense oligonucleotide.

[3] = system: AAH in PNET2 cells; test: Western blot of AAH expression in treated PNET2 cells; format: cell-based, Human
Protocol: Studies were conducted to determine whether AAH expression was modulated with neurite (filopodia) extension (sprouting) as occurs with invasive growth of malignant neoplasms. Human PNET2 CNS-derived and SH-Sy5y neuroblastoma cells were cultured and stimulated for 0, 1, 2, 3, 5, or 7 days with 100 nM phorbol […] or 10 μM retinoic acid to induce sprouting. […] For both studies, AAH expression was evaluated by Western blot analysis using the an HAAH-specific antibody.
(§1) Cells grown in 10 cm^2 dishes were lysed and homogenized in a standard radioimmunoprecipitation assay RIPA buffer containing protease and phosphatase inhibitors. The supernatants collected after centrifuging the samples at 12,000×g for 10 minutes to remove insoluble debris were used for Western blot analysis. Protein concentration was measured using the BCA assay (Pierce Chemical Co, Rockford, Ill.). Samples containing 60 μg of protein were electrophoresed in sodium dodecyl sulfate polyacrylamide gels (SDS-PAGE) and subjected to Western blot analysis. Replicate blots were probed with the individual antibodies. Immunoreactivity was detected with horseradish peroxidase conjugated IgG (Pierce Chemical Co, Rockford, Ill.) and enhanced chemiluminescence reagents. To quantify the levels of protein expression, non-saturated autoradiographs were subjected to volume densitometry using NIH Image software, version 1.6. […]

[4] = system: PNET2 cells; test: Trypan blue dye exclusion viability; format: cell-based, Human; conditions: 24 hours, sub-lethal concentrations of H2O2
Protocol: FIGS. 5A-D are bar graphs showing increased AAH expression in PNET2 (FIGS. 5A, 5C) and SH-Sy5y (FIG. 5B) cells treated with retinoic acid (FIGS. 5A, 5B) or phorbol ester myristate (PMA; FIG. 5C) to induce neurite outgrowth as occurs during tumor cell invasion. The cells were treated with 10 μM retinoic acid or 100 nM PMA for 0, 1, 2, 3, 4, or 7 days. Cell lysates were analyzed by Western blot analysis using an HAAH-specific monoclonal antibody to detect the 85 kDa AAH protein. The levels of immunoreactivity were measured by volume densitometry (arbitrary units). The graphs indicate the mean±S.D. of results obtained from three separate experiments. In FIG. 5D, PNET2 cells were treated for 24 hours with sub-lethal concentrations of H2O2 to induce neurite retraction. […] Similar results were obtained for SH-Sy5y cells.
To examine the effect of AAH expression on neurite retraction, PNET2 and SH-Sy5y cells were treated with low concentrations (8-40 μM) of H2O2.

[5] = system: human AAH cDNA (pHAAH); test: in vitro cell free transcription translation assay (TNT Quick Coupled System); format: biochemical; conditions: 100× or 1000× excess oligonucleotide; rabbit reticulocyte lysate, [35S] methionine, SDS-PAGE autoradiography
Protocol: Using an in vitro cell free transcription translation assay (TNT Quick Coupled System), the human AAH cDNA (pHAAH) was used to synthesize AAH protein. […] The translated product was labeled with [^35S] methionine in the presence of reaction buffer, RNA polymerase, amino acid mixture, and ribonuclease inhibitor (RNAsin). The products were analyzed by SDS-PAGE followed by autoradiography. A luciferase (Luc) expressing plasmid was used as a positive control. In the second and third lanes, synthesis of the ˜85 kD AAH protein is shown (AAH, arrow) using 1 or 2 micrograms of plasmid as the template and the T7 DNA-dependent RNA polymerase primer/promoter to generate mRNA.

[6] = system: AAH in SH-Sy5y cells; test: Western blot of AAH expression in treated SH-Sy5y cells; format: cell-based, Human; conditions: up to 7 days, FIG. 5B
Protocol: Studies were conducted to determine whether AAH expression was modulated with neurite (filopodia) extension (sprouting) as occurs with invasive growth of malignant neoplasms. Human PNET2 CNS-derived and SH-Sy5y neuroblastoma cells were cultured and stimulated for 0, 1, 2, 3, 5, or 7 days with 100 nM phorbol […] or 10 μM retinoic acid to induce sprouting. In addition, to examine the effects of neurite retraction on AAH expression, subconfluent cultures were treated for 24 hours with low concentrations (10-40 μM) of H2O2. For both studies, AAH expression was evaluated by Western blot analysis using the an HAAH-specific antibody.
as §1, with “Samples containing 60 μg of protein were electrophoresed in sodium dodecyl sulfate polyacrylamide gels (SDS-PAGE) and subjected to Western blot analysis. Replicate blots were probed with the individual antibodies.” left out

With “Insulin: insulin used to stimulate FOCUS HCC cells” the HAAH gene expression [1] was “upregulation”.
In the case of “5′ TTACGCTGGGCCATTGCACG 3′ (antisense TTACGCTGGGCCATTGCACG; listed as DNA, chemistry not given here) [Location-6, AAH antisense oligonucleotide (20 mer)]”, the AAH immunoreactivity [2] is reported as “reduced levels”.
In the case of `OO` [H2O2], the “levels of AAH protein” value ([3]; 24 hours, 8-40 μM H2O2, FIG. 5D) is reported as “dose-dependent reductions” and the “Viability of the cells” value [4] is reported as “greater than 90%”.
In the case of “5′ ATCATGCAATGGCCCAGCGTAA 3′ (sense ATCATGCAATGGCCCAGCGTAA; listed as DNA, chemistry not given here) [sense oligonucleotide, sense oligonucleotide beginning at Location-3, control]”, the “inhibition of AAH protein synthesis” value [5] is reported as “no effect”.
With `CCCCCCCCCCCCCC(=O)O[C@@H]1[C@@H](C)[C@@]2(O)[C@@H](C=C(CO)C[C@]3(O)C(=O)C(C)=C[C@@H]23)[C@@H]2C(C)(C)[C@]12OC(C)=O` [PMA, phorbol ester myristate] the “increase in levels of AAH protein” value ([3]; 24 hours after exposure, 10 μM retinoic acid or 100 nM PMA) was “at least two-fold” and the “RA- or PMA-stimulated increases in AAH expression” value [6] was “highest after 7 days of treatment”.
